Measured values: ChEMBL document CHEMBL1130850, “Asymmetric synthesis and anti-HIV activity of L-carbocyclic 2',3'-didehydro-2',3'-dideoxyadenosine” (Bioorg Med Chem Lett, 1998)
Each block holds one molecule with its values, some of them ahead of it.

Assays:
CCRF-CEM [1] = test: Compound was evaluated for its cytotoxicity against CEM cells.; format: functional, cell-based; conditions: Homo sapiens
[2] = Compound was evaluated for its cytotoxicity against peripheral blood mononuclear (PBM) cells.; format: functional, cell-based; conditions: Homo sapiens
Vero = test: Compound was evaluated for its cytotoxicity against vero cells.; format: functional, cell-based; conditions: Chlorocebus sabaeus
[3] = Compound was evaluated for its anti-HIV activity in vitro in peripheral blood mononuclear (PBM) cells; format: functional; conditions: Homo sapiens
CCRF-CEM [4] = test: Compound was evaluated for its cytotoxicity expressed as IC50 against CEM cells.; format: functional, cell-based; conditions: Homo sapiens

EC50 [3]: > 100 µM
SMILES: OCC1C=CC(n2cnc3c(S)ncnc32)C1 (stereo unspecified)
IC50 (CCRF-CEM [1]): > 100 µM
IC50 [2]: > 100 µM
IC50 (Vero): > 100 µM

SMILES: Nc1ncnc2c1ncn2C1C=CC(CO)C1 (stereo unspecified)
IC50 [2]: > 100 µM
IC50 (Vero): > 100 µM
EC50 [3]: 2.4 µM
EC90 [3]: 11.7 µM
IC50 (CCRF-CEM [4]): > 100 µM

SMILES: Cc1cn([C@H]2C[C@H](N=[N+]=[N-])[C@@H](CO)O2)c(=O)[nH]c1=O [ZIDOVUDINE]
IC50 [2]: > 100 µM
EC50 [3]: 0.004 µM
